{
  "source": "patent US20240166765A1",
  "about": "“INFLAMMATORY DISEASE TREATMENT USING ANTI-TISSUE FACTOR ANTIBODIES” (Iconic Therapeutics LLC, priority 2020, published 2024)",
  "key": {"[1]": {"tested_on": "DSS-colitis model, C57BL/6 mice", "assay": "DSS-colitis model (2.5% DSS)", "format": "in vivo, mouse", "text": "In a colitis model, the administration of dextran sulfate sodium (DSS) causes colitis-like pathologies due to toxicity to colonic epithelial cells, which leads to a compromised mucosal function and infiltration of neutrophils, macrophages and lymphocytes. It results in loss of epithelial barrier function, secretion of proinflammatory cytokines and chemokines, and the influx of cells with cytotoxic potential, such as neutrophils and inflammatory macrophages. It is not considered a T-cell-mediated process in the art.\nOn Day 0 of the study, 8-12 week old male C57BL/6 mice received either sterile water ad libitum (Group 1, n=5) or 2.5% (w/v) DSS dissolved into sterile water ad libitum (Groups 2-5, n=10 mice per group).\nOn Day 8, all animals received sterile water for the remainder of the experiment and were euthanized on day 10.\nThroughout the study clinical observations were made daily. Body weight was measured and recorded daily (from Day 0 to Day 10). Body condition was also evaluated visually daily using the scoring system illustrated in FIG. 2. The stool consistency was determined qualitatively and blood in stool was measured daily using a hemoccult stool bleeding test. […]\nFollowing euthanasia, the animal was measured (length determined) and weighed. Weight/length ratio was calculated for each animal. The animals were dissected and the weight of their spleens was determined. […]"}, "[2]": {"tested_on": "thrombin generation (relipidated TF in normal pooled plasma)", "assay": "Thrombin generation assay (TGA) without antibody pre-incubation", "format": "biochemical, human", "settings": "Table 44", "experimental": "(§1) The TGA assay was performed using the calibrated-automated-thrombogram (CAT) instrument manufactured and distributed by STAGO. The test method design was equivalent to a standard CAT assay measurement, except that the plasma source was NPP in citrate/CTI. […] Relipidated TF was added to a 96-well assay plate, followed by addition of the antibody/NPP mixture. After a 10-min incubation or directly after combining the relipidated TF with antibody/NPP, thrombin generation was initiated by the addition of calcium and the thrombin substrate. The STAGO software was used to report the following parameters: Peak IIa (highest thrombin concentration generated [nM]); Lag Time (time to IIa generation [min]); ETP (endogenous thrombin potential, area under the curve [nM×min]); and ttPeak (time to Peak IIa [min]).\nas §1, with “was normal pooled plasma (NPP)” for “was NPP”, “in citrate supplemented with corn trypsin inhibitor (citrate/CTI).” for “in citrate/CTI.”\n(§2) TGA assay was performed using the calibrated-automated-thrombogram (CAT) instrument manufactured and distributed by STAGO (Diagnostica Stago SAS, Asnieres sur Seine, France). […] The anti-TF antibodies were titrated at 0, 10, 50 and 100 nM and mixed with NPP in citrate/CTI. Relipidated TF was added to a 96-well assay plate, followed by addition of the antibody/NPP mixture. After a 10-min incubation or directly after combining the relipidated TF with antibody/NPP, thrombin generation was initiated by the addition of calcium and the thrombin substrate. The STAGO software was used to report the following parameters: Peak IIa (highest thrombin concentration generated on the thrombin generation curve [nM]); Lag Time (time from assay start to the moment 10 nM of thrombin is formed [min]); ETP (endogenous thrombin potential, area under the curve [nM×min]); and ttPeak (time from assay start to Peak IIa [min]). […] As used herein, the term “thrombin generation assay” (TGA) refers to the TGA used in this example."}, "[3]": {"tested_on": "chimeric human-rat TF constructs expressed on HEK293 cells", "assay": "Epitope binning, chimeric TF construct mapping (live cell staining assay)", "format": "binding", "experimental": "To establish binding of the anti-human TF antibodies to the various TF constructs, HEK293 cells were transfected with a DNA plasmid that co-expresses the TF construct and a green fluorescent protein marker. For a subset of the antibodies, an antibody titration (a 12-point 1:3 dilution series starting at 250 nM) was evaluated on select TF constructs (See international PCT application PCT/US2019/012427 and U.S. utility application Ser. No. 16/959,652, incorporated herein by reference in their entirety). […] Two days after transfection, cells were collected from the tissue culture plate, stained with 15 μg/ml of the indicated anti-TF antibody, washed, stained with anti-human IgG-Fc Alexa Fluor 647 polyclonal antibody, washed, and stained with the viability dye 4′,6-Diamidino-2-Phenylindole, Dihydrochloride. Upon acquisition of 80,000 live events on a flow cytometer, live cells marked with the fluorescent marker were analyzed for the degree of staining by the anti-TF antibody. […] As used herein, the term “live cell staining assay” refers to the antibody binding assay used in this example.\nWhen “Percentage antibody binding to TF construct relative to hTF” in Tables 51 and 52 was less than 50%, the antibody was considered a non-binder (0) in Tables 53 and 54."}, "[4]": {"tested_on": "thrombin generation (relipidated TF in normal pooled plasma)", "assay": "Thrombin generation assay (TGA) with 10 min antibody pre-incubation", "format": "biochemical, human", "experimental": "as §1\nas §1, with “was normal pooled plasma (NPP)” for “was NPP”, “in citrate supplemented with corn trypsin inhibitor (citrate/CTI).” for “in citrate/CTI.”\nas §2"}, "[5]": {"tested_on": "LPS-induced acute lung injury model, BALB/c mice", "assay": "LPS-induced acute lung injury model", "format": "in vivo, mouse", "settings": "end of the study; 431D8 1 mg/kg IP; dexamethasone 3 mg/kg IP", "experimental": "For this study, 48 male BALB/c mice were randomly and prospectively assigned to five groups: a group of six (n=6), a group of twelve (n=12), and three groups of ten (n=10 per group) animals each. On Day 0, animals in Groups 2-5 were dosed according to Table 63, 60 minutes prior to LPS administration. […] Animals were then released into a recovery cage until they woke up.\nAll animals were weighed and evaluated for respiratory distress daily (defined as an increase in respiratory rate and/or obvious respiratory effort). Animals with severe respiratory distress, or animals that lost greater than 20% of their total starting body weight, were euthanized within 2 hours of observation.\nAt 48 hours post-LPS challenge all animals were sacrificed with an overdose of xylazine and bronco-alveolar lavage (BAL) of the right lung only was performed (by tying off the left lung) for total and differential cell counts as well as total protein quantification and cytokine quantitation by Luminex. Lungs were then weighed (total lung weight and right lung weight). The right lung was frozen in liquid nitrogen and stored at −80° C. […] All slides were evaluated by a board-certified veterinary pathologist who used a scoring system to evaluate extent of lung injury and inflammation."}, "HUVECs": {"tested_on": "HUVECs", "assay": "G2/M arrest (phospho-Histone H3) in HUVECs", "format": "cell-based, human", "settings": "HCT-116 cells and HUVECs", "experimental": "To further understand the resistance of endothelial cells to anti-TF ADCs, cell cycle progression was evaluated 24 h after addition of the cytokines and TF-specific ADCs. Arrest at the G2/M phase of the cell cycle was analyzed as previously described in Theunissen et al, Methods Enzymol, 2006, 409:251-284. Briefly, low-passage HUVECs (Lifeline Cell Technologies, Frederick, MD, USA), propagated in VascuLife VEGF-Mv Endothelial media (Lifeline Cell Technologies), and HCT-116 cells were seeded on 12-well plates. The next day, media was removed and replaced with fresh media (no cytokines) or media containing 5 […] IL1-beta, 25 ng/mL TNF-alpha and 50 ng/mL VEGF (with cytokines). A titration of MMAE-linked ADCs or free MMAE was added to the cells. After 24 h of treatment, cells were fixed in ice-cold 70% ethanol. Subsequently, the cells were washed with flow cytometry buffer (PBS, 1% FBS, 0.1% Triton) and stained for 1 h with a 1:100 dilution of phospho-Histone H3 (Ser10) (D2C8 PE Conjugate, Cell Signaling Technology). After 2 washes, the cells were treated for 20 min with 100 μg/mL PureLink RNAse A (ThermoFisher Scientific), followed by the addition of the viability dye TO-PRO-3 Iodide (ThermoFisher Scientific). 40,000 events were collected on a Novocyte flow cytometer. In the Flowjo data analysis software cell doublets and aneuploid cells were excluded. […]"}},
  "note": "Square brackets hold non-standard residues; d marks the D form. Peptide text beside a SMILES is read from it. * marks the point of attachment. Dolaproine = CO[C@@H]([C@@H]1CCCN1)[C@@H](C)C(=O)O; Dil = CC[C@H](C)[C@H](NC)[C@@H](CC(=O)O)OC; X1 = C[C@@H](N*)[C@@H](O)c1ccccc1; NMeV = CN[C@H](C(=O)O)C(C)C",
  "data": [
    {"compound": "Cyclosporine [CsA, reference compound]", "values": [
      {"measurement": "body condition score", "setting": "[1]; after Day 7", "result": "most significant deterioration in body condition"},
      {"measurement": "weight loss relative to baseline", "setting": "[1]; by Day 4, CsA 80 mg/kg once daily oral gavage", "result": "~20", "unit": "%"}
    ]},
    {"compound": "5G9: previously described TF-specific antibody", "values": [
      {"measurement": "ETP", "setting": "[2]; Ab conc. 10 nM", "result": 1176, "unit": "nM·min"},
      {"measurement": "Antibody binding to TF construct", "setting": "[3]; Table 53, construct rTF", "result": "0 (less than 50%, the antibody was considered a non-binder (0))"},
      {"measurement": "Antibody binding to TF construct", "setting": "[3]; Table 54, construct rTF", "result": "0 (less than 50%, the antibody was considered a non-binder (0))"},
      {"measurement": "Constructs not bound by antibody", "setting": "[3]; chimeric human-rat TF constructs", "result": "rTF, h1-107_r, h108-219_r, h159-219_r, h159-189_r, h159-174_r, h167-174_r, h190-219_r"},
      {"measurement": "Antibody binding to TF construct", "setting": "[3]; construct h78-107_r (21), human segment replaced by rat segment", "result": "1 (between 50% and 150%, the antibody was considered a binder (1))"},
      {"measurement": "Antibody binding to TF construct", "setting": "[3]; construct h108-219_r (46), human segment replaced by rat segment", "result": "0 (less than 50%, the antibody was considered a non-binder (0))"},
      {"measurement": "Antibody binding to TF construct", "setting": "[3]; construct h159-219_r (27), human segment replaced by rat segment", "result": "0 (less than 50%, the antibody was considered a non-binder (0))"},
      {"measurement": "Antibody binding to TF construct", "setting": "[3]; construct r141-194_h (rat amino acid segment replaced by human segment, 20 amino acid changes)", "result": "0 (less than 50%, the antibody was considered a non-binder (0))"},
      {"measurement": "Percent antibody binding to TF construct relative to hTF", "setting": "[3]; construct r141-194_h (rat amino acid segment replaced by human segment, 20 amino acid changes), 15 μg/ml antibody", "result": 32, "unit": "%"}
    ]},
    {"compound": "10H10: previously described TF-specific antibody [reference compound]", "values": [
      {"measurement": "ETP", "setting": "[2]; Ab conc. 10 nM", "result": 2036, "unit": "nM·min"},
      {"measurement": "ETP", "setting": "[2]; Ab conc. 50 nM", "result": 1978, "unit": "nM·min"},
      {"measurement": "ETP", "setting": "[2]; Ab conc. 100 nM", "result": 1945, "unit": "nM·min"},
      {"measurement": "ETP", "setting": "[4]; Ab conc. 10 nM", "result": 1807, "unit": "nM·min"},
      {"measurement": "ETP", "setting": "[4]; Ab conc. 50 nM", "result": 1754, "unit": "nM·min"},
      {"measurement": "ETP", "setting": "[4]; Ab conc. 100 nM", "result": 1795, "unit": "nM·min"}
    ]},
    {"compound": "Dexamethasone [reference compound]", "values": [
      {"measurement": "weight loss relative to baseline", "setting": "[5]", "result": "about 2%"}
    ]},
    {"compound": "CC[C@H](C)[C@@H]([C@@H](CC(=O)N1CCC[C@H]1[C@H](OC)[C@@H](C)C(=O)N[C@H](C)[C@@H](O)c1ccccc1)OC)N(C)C(=O)[C@@H](NC(=O)[C@@H](NC)C(C)C)C(C)C", "note": "[MMAE, monomethyl auristatin E] (H-[NMeV]V[Dil][Dolaproine]-X1)", "values": [
      {"measurement": "phosphorylation of histone H3", "setting": "HUVECs", "result": "increase the phosphorylation of histone H3 to a similar extent in both HCT-116 cells and HUVECs"}
    ]}
  ]
}
